This is an account of results in patent US7803793B2, “Heterocyclic derived metalloprotease inhibitors” (Janssen Pharmaceutica NV, priority 2006, dated 2010).

The target in test [1] is T1, MMP-2 (Homo sapiens, UniProt P08253).
T1 construct: Human MMP-2 full length (aa 1-660)
T1 sequence (P08253 30-660): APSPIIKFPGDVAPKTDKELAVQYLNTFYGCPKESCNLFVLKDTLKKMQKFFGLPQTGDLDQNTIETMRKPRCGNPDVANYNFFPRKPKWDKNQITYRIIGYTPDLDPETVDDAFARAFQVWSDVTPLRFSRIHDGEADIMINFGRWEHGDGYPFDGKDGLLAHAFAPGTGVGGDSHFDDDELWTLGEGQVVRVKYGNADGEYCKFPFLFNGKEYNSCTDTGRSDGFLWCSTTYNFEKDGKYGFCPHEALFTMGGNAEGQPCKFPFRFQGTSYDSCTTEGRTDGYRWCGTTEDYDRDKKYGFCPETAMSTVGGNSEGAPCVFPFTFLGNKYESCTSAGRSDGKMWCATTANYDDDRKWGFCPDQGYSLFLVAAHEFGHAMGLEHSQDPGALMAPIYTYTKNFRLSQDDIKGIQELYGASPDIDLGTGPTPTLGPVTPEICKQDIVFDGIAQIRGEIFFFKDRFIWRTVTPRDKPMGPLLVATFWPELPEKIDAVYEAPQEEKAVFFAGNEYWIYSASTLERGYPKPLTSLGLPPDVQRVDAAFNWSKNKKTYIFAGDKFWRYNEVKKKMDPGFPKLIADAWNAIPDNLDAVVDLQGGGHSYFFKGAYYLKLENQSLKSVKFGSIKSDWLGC
As to the kind of experiment: MMP enzymatic assay (Trupoint peptide), MMP-2. Type of test: biochemical. Here is the method: [formula] • 1) Prepare appropriate 1×MMP assay buffer from 10× stock. […] Need to prepare a 2.5× concentration stock (2.5 μM) to achieve this concentration in 50 μl. Dilute compound to 2.5 mM in 100% DMSO (a 1:40 dilution), then dilute the 2.5 mM compound to 2.5 μM (1:1000) into 1× assay buffer. Make 1 ml 2.5 μM compound in assay buffer. • 4) Fill the rows B through P of a 384-well plate with assay buffer+0.1% DMSO. • 5) Add 30 ul of the 2.5 μM compound in assay buffer to the top row of the plate, doing each compound in triplicate. The plate setup should be as follows, using GM6001 as plate reference compound:
• 6) Serially dilute 10 μl down the plate to achieve 1:3 dilutions in subsequent wells. After each dilution, change pipette tips to avoid compound carryover. Discard the remaining 10 μl after diluting into the final row. • 7) Prepare enzyme dilutions at 2.5× of final desired concentration (see below). Will need 10 ml enzyme solution per plate. Add enzyme to plate, 20 μl per well. Incubate 1 hr.
• 8) Dilute the 500 μM Trupoint peptide 1:1000 into assay buffer to achieve a 5× working stock of 500 nM. Prepare 5 ml total per plate. Add 10 ul of substrate to each well to achieve a final concentration of 100 nM in well. Also prepare background subtraction wells by adding 10 μl 5× substrate to 40 μl assay buffer per well, typically do ˜32 wells. • 9) Incubate assay at room temperature for 15 min. Read in plate reader.
(§1) Analysis Specifications • Calculate average background value from substrate/assay buffer wells • Subtract this from entire plate • Calculate average of DMSO wells for each enzyme. This is the positive control, 100% value. • For each well, calculate percent of control by dividing well value by the average DMSO value obtained above. • Paste percent of control values into Graphpad Prism 4.0.

Test [2] concerns the target T2, MMP-9 (Homo sapiens, UniProt P14780).
T2 construct: Human MMP-9 catalytic domain (aa 107-446)
Put plainly: MMP enzymatic assay (Trupoint peptide), MMP-9. Type of test: biochemical. Here is the method:
[formula] • 1) Prepare appropriate 1×MMP assay buffer from 10× stock. […] The plate setup should be as follows, using GM6001 as plate reference compound:
• 6) Serially dilute 10 μl down the plate to achieve 1:3 dilutions in subsequent wells. After each dilution, change pipette tips to avoid compound carryover. […] Will need 10 ml enzyme solution per plate. Add enzyme to plate, 20 μl per well. Incubate 1 hr.
Prepare 5 ml total per plate. Add 10 ul of substrate to each well to achieve a final concentration of 100 nM in well. […] Read in plate reader.
as §1

Read-outs that look alike come from different tables or passages of the source.

T2 sequence (P14780 107-446): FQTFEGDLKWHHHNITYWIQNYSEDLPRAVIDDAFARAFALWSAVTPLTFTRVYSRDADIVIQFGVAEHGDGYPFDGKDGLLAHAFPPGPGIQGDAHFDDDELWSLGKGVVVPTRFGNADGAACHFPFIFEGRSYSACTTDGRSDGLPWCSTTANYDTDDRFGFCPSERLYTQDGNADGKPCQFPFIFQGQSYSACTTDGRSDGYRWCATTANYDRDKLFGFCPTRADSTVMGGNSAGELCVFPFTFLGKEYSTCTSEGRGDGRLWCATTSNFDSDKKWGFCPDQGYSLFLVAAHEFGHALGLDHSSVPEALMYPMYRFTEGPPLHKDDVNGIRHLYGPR

The term IC50 denotes the concentration at which inhibition is half-maximal. For the compound `CN(c1cccn(O)c1=O)S(=O)(=O)c1ccc(Oc2ccc(Cl)cc2)cc1` [Compound 28, 4-(4-Chloro-phenoxy)-N-(1-hydroxy-2-oxo-1,2-dihydro-pyridin-3-yl)-N-methyl-benzenesulfonamide], the IC50 was 0.0069 µM in test [1] and 0.00328 µM in test [2].

Turning to `O=c1c(N(CCN2CCSCC2)S(=O)(=O)c2ccc(Oc3ccc(Cl)cc3)cc2)cccn1O` [Compound 98], the IC50 was 0.0061 µM in test [1] (read-out: MMP-2 nM IC50) and 0.0049 µM in test [2].

As for `O=c1c(NS(=O)(=O)c2ccc(-c3ccc(Cl)cc3)cc2)cccn1O` [Compound 40, 4′-Chloro-biphenyl-4-sulfonic acid (1-hydroxy-2-oxo-1,2-dihydro-pyridin-3-yl)-amide], the IC50 in test [1] and in test [2] was > 1 µM in each case.

As to `O=C1[C@H](N(CCN2CCCCC2)S(=O)(=O)c2ccc(Oc3ccc(Cl)cc3)cc2)CC=CCN1O` [Compound 13, 4-(4-Chloro-phenoxy)-N-(1-hydroxy-2-oxo-2,3,4,7-tetrahydro-1H-azepin-3-(R)-yl)-N-(2-piperidin-1-yl-ethyl)-benzenesulfonamide], the results for the 50% inhibitory concentration (IC50) in test [1] and in test [2] were 0.00055 µM and 0.00021 µM, respectively.

For the compound `O=C1[C@H](N(CCN2CCOCC2)S(=O)(=O)c2ccc(Oc3ccc(Cl)cc3)cc2)CC=CCN1O` [Compound 11, 4-(4-Chloro-phenoxy)-N-(1-hydroxy-2-oxo-2,3,4,7-tetrahydro-1H-azepin-3-(R)-yl)-N-(2-morpholin-4-yl-ethyl)-benzenesulfonamide], the IC50 stood at 0.00031 µM in test [1] and 0.0002 µM in test [2].

Regarding `CCCCc1ccc(N(Cc2cccn(O)c2=O)S(C)(=O)=O)cc1` [Compound 45, N-(4-Butyl-phenyl)-N-(1-hydroxy-2-oxo-1,2-dihydro-pyridin-3-ylmethyl)-methane-sulfonamide], the 50% inhibitory concentration (IC50) in test [1] and in test [2] was > 1 µM each time.

For `O=C1[C@H](NS(=O)(=O)c2ccc(-c3ccc(Cl)cc3)cc2)CC=CCN1O` [Compound 2, 4′-Chloro-biphenyl-4-sulfonic acid (1-hydroxy-2-oxo-2,3,4,7-tetrahydro-1H-azepin-3-(R)-yl)-amide], the results for the IC50 in test [1] and in test [2] were 0.0686 µM and 1.14 µM, respectively.

As for `O=C1[C@H](N(CCN2CCOCC2)S(=O)(=O)c2ccc(Br)s2)CC=CCN1O` [Compound 18, (R)-5-Bromo-thiophene-2-sulfonic acid (1-hydroxy-2-oxo-2,3,4,7-tetrahydro-1H-azepin-3-yl)-(2-morpholin-4-yl-ethyl)-amide], the IC50 in test [1] was 0.0481 µM; in test [2], 0.0143 µM.

In the case of `O=C1C(NS(=O)(=O)c2ccc(Oc3ccc(Cl)cc3)cc2)CCCCN1O` (centres unmarked) [Compound 92], the concentration for half-maximal inhibition (IC50) is 0.0037 µM in test [1] and 0.0059 µM in test [2].

As for `O=C1[C@H](NS(=O)(=O)c2ccc(N3CCC(c4ccccc4)CC3)cc2)CC=CCN1O` [Compound 9, N-(1-Hydroxy-2-oxo-2,3,4,7-tetrahydro-1H-azepin-3-(R)-yl)-4-(4-phenyl-piperidin-1-yl)-benzenesulfonamide], the IC50 in test [1] and in test [2] was > 1 µM throughout.

Regarding `CN1CCCN(O)C(=O)[C@@H]1CN(c1ccc(Oc2ccc(C(F)(F)F)cc2)cc1)S(C)(=O)=O` [Compound 68, (3S)-1-Hydroxy-3-{N-methanesulfonyl-N-[4-(4-trifluoromethylphenoxy)-phenyl]amino}methyl-4-methyl-1,4-diazepan-2-one], the IC50 was 1.25 µM in test [1] and 0.406 µM in test [2].

In the case of `COc1ccc(S(=O)(=O)Cc2cccn(O)c2=O)cc1` [Compound 96], the IC50 in test [1] and in test [2] was > 1 µM in each case.

On to `Cc1ccc2[nH]c(-c3ccc(S(=O)(=O)C4CCCCN(O)C4=O)cc3)nc2c1` (centres unmarked) [Compound 75, 1-Hydroxy-3-[4-(5-methyl-1H-benzoimidazol-2-yl)-benzenesulfonyl]-azepan-2-one], for which the IC50 in test [1] and in test [2] was > 1 µM each time.

Consider `Cc1ccc(Oc2ccc(N(Cc3cc(C)cn(O)c3=O)S(C)(=O)=O)cc2)cc1` [Compound 51, N-(1-Hydroxy-5-methyl-2-oxo-1,2-dihydro-pyridin-3-ylmethyl)-N-(4-p-tolyloxy-phenyl)-methanesulfonamide], for which the figures for the IC50 in test [1] and in test [2] were 0.241 µM and 0.0439 µM, respectively.

Regarding `O=C1[C@H](NS(=O)(=O)c2ccc(Oc3ccc(Cl)cc3)cc2)CC=C(CN2CCOCC2)CN1O` [Compound 19, 4-(4-Chloro-phenoxy)-N-(1-hydroxy-6-morpholin-4-ylmethyl-2-oxo-2,3,4,7-tetrahydro-1H-azepin-3-(R)-yl)-benzenesulfonamide], the IC50 in test [1] worked out at 0.00039 µM; in test [2], 0.00077 µM.

Turning to `CCCCOc1ccc(N(Cc2cccn(O)c2=O)S(C)(=O)=O)cc1` [Compound 46, N-(4-Butoxy-phenyl)-N-(1-hydroxy-2-oxo-1,2-dihydro-pyridin-3-ylmethyl)-methanesulfonamide], the IC50 in test [1] and in test [2] was > 1 µM in each case.

As for `CC(C)CN(c1cccn(O)c1=O)S(=O)(=O)c1ccc(Oc2ccccc2)cc1` [Compound 24, N-(1-Hydroxy-2-oxo-1,2-dihydro-pyridin-3-yl)-N-isobutyl-4-phenoxy-benzenesulfonamide], the figures for the IC50 in test [1] and in test [2] were 0.041 µM and 0.0575 µM, respectively.

`O=C1[C@H](NS(=O)(=O)c2ccc(Oc3ncc(C(F)(F)F)cc3Cl)cc2)CC=CCN1O` [Compound 7, 4-(3-Chloro-5-trifluoromethyl-pyridin-2-yloxy)-N-(1-hydroxy-2-oxo-2,3,4,7-tetrahydro-1H-azepin-3-(R)-yl)-benzenesulfonamide]: the concentration for half-maximal inhibition (IC50) in test [1] and in test [2] was > 1 µM throughout.

In the case of `CN([C@@H]1CC=CCN(O)C1=O)S(=O)(=O)c1ccc(Oc2ccc(Cl)cc2)cc1` [Compound 12, 4-(4-Chloro-phenoxy)-N-(1-hydroxy-2-oxo-2,3,4,7-tetrahydro-1H-azepin-3-(R)-yl)-N-methyl-benzenesulfonamide], the IC50 in test [1] was found to be 0.00199 µM; in test [2], 0.00132 µM.

For the compound `COc1ccc(-c2ccc(S(=O)(=O)Cn3cccc(O)c3=O)cc2)cc1` [Compound 67, 3-Hydroxy-1-(4′-methoxy-biphenyl-4-sulfonylmethyl)-1H-pyridin-2-one], the half-inhibitory concentration (IC50) in test [1] and in test [2] was > 10 µM throughout.

For the compound `O=C1[C@H](CS(=O)(=O)c2ccc(Oc3ccccc3)cc2)NCCCN1O` [Compound 69, (3R)-1-Hydroxy-3-(4-phenoxy)benzenesulfonylmethyl-1,4-diazepan-2-one], the IC50 in test [1] is 0.0467 µM; in test [2], 0.0306 µM.

Take `O=C1C(S(=O)(=O)c2ccc(-c3ccccc3)cc2)CCCCN1O` (centres unmarked) [Compound 83, 3-(Biphenyl-4-sulfonyl)-1-hydroxy-azepan-2-one]: the IC50 in test [1] and in test [2] was > 1 µM in each case.

Consider `N#Cc1ccc(-c2ccc(S(=O)(=O)C3CCCCN(O)C3=O)cc2)cc1` (centres unmarked) [Compound 84, 4′-(1-Hydroxy-2-oxo-azepane-3-sulfonyl)-biphenyl-4-carbonitrile], for which the 50% inhibitory concentration (IC50) in test [1] and in test [2] was > 1 µM in each case.

Consider `CN(c1cccn(O)c1=O)S(=O)(=O)c1ccc(Oc2ccccc2)cc1` [Compound 25, N-(1-Hydroxy-2-oxo-1,2-dihydro-pyridin-3-yl)-N-methyl-4-phenoxy-benzene-sulfonamide], for which the IC50 in test [1] was 0.00152 µM; in test [2], 0.00141 µM.

`Cc1ccc(S(=O)(=O)Cn2cccc(O)c2=O)cc1` [Compound 60, 3-Hydroxy-1-(toluene-4-sulfonylmethyl)-1H-pyridin-2-one]: the IC50 stood at 0.468 µM in test [1] (read-out: MMP-2 nM IC50) and 1.07 µM in test [2].
